Source: US11001613B2, “TFPI inhibitors and methods of use” (priority 2008, dated 2021)
Residues, ends and D or L forms follow the SMILES beside them.

What was measured:
[1] = target: T1, TFPI-1 (Homo sapiens, UniProt P10646); test: FXa inhibition assay; type: biochemical; conditions: OD readings after 115 minutes
T1 sequence (P10646 29-304): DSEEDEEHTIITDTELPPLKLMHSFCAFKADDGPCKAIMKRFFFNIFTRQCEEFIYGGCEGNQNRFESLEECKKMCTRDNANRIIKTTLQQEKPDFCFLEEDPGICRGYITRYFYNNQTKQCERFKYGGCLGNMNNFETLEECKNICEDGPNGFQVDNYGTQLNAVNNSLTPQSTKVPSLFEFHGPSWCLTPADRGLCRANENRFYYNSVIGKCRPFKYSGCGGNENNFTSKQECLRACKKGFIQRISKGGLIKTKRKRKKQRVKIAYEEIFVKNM

[2] = in vivo, iv, 10 mg/kg
Procedure: The peptides were administered intravenously to C57Bl6 mice at a dose of 10 mg/kg. Three biological samples were analyzed for the presence of peptide at each time point.

[3] = tested on: TFPI-dependent thrombin generation in FVIII deficient plasma; test: thrombin generation (calibrated automated thrombography) in FVIII deficient plasma; conditions: plasma-based assay, FIGS. 11A and 11B

CC(=O)N[C@@H](Cc1ccccc1)C(=O)N[C@@H](CCC(N)=O)C(=O)N[C@@H](CO)C(=O)N[C@@H](CCCCN)C(=O)N[C@@H](CC(N)=O)C(=O)N[C@@H](CC(N)=O)C(=O)N[C@H](C(=O)N[C@@H](Cc1ccccc1)C(=O)N[C@H](C(=O)N[C@@H](Cc1ccccc1)C(=O)NCC(=O)N[C@@H](Cc1ccc(O)cc1)C(=O)N[C@@H](Cc1ccccc1)C(=O)N[C@@H](CCC(=O)O)C(=O)N[C@@H](CCCNC(=N)N)C(=O)N[C@@H](CC(C)C)C(=O)N[C@@H](CCCNC(=N)N)C(=O)N[C@@H](C)C(=O)N[C@@H](CCCCN)C(=O)N[C@@H](CC(C)C)C(N)=O)C(C)C)C(C)C [JBT0297] (Ac-FQSKNNVFVFGYFERLRAKL-NH2)
EC50 [1]: 600 nM

CC(=O)N[C@@H](Cc1ccccc1)C(=O)N[C@@H](CCC(N)=O)C(=O)N[C@@H](CO)C(=O)N[C@@H](CCCCN)C(=O)NCC(=O)N[C@@H](CC(N)=O)C(=O)N[C@H](C(=O)N[C@@H](Cc1ccccc1)C(=O)N[C@H](C(=O)N[C@@H](CC(=O)O)C(=O)NCC(=O)N[C@@H](Cc1ccc(O)cc1)C(=O)N[C@@H](Cc1ccccc1)C(=O)N[C@@H](CCC(=O)O)C(=O)N[C@@H](CCCNC(=N)N)C(=O)N[C@@H](CC(C)C)C(=O)NC(C)(C)C(=O)N[C@@H](C)C(=O)N[C@@H](CCCCN)C(=O)N[C@@H](CC(C)C)C(N)=O)C(C)C)C(C)C [JBT0740]
concentration of peptide in mouse plasma over time [2]: rapidly cleared from the plasma

CSCC[C@@H]1NC(=O)CNC(=O)[C@@H](NC(=O)[C@H](Cc2ccccc2)NC(=O)[C@H](Cc2c[nH]c3ccccc23)NC(=O)[C@H](CCCCN)NC(=O)[C@H](Cc2ccc(O)cc2)NC(=O)[C@H](CCCNC(=N)N)NC(=O)[C@H](CO)NC(=O)[C@H](C)NC(=O)CNC(=O)[C@H](CO)NC(C)=O)CSSC[C@@H](C(=O)N[C@H](C(=O)N[C@@H](Cc2c[nH]c3ccccc23)C(=O)N[C@H](C(=O)N[C@@H](CCCCN)C(=O)N[C@@H](Cc2ccccc2)C(=O)N[C@@H](CCCNC(=N)N)C(=O)N[C@@H](Cc2ccc(O)cc2)C(=O)N[C@@H](CC(=O)O)C(=O)N[C@H](C(=O)N[C@@H](CO)C(N)=O)[C@@H](C)O)C(C)C)C(C)C)NC(=O)[C@H](CO)NC(=O)[C@H](CCSC)NC(=O)[C@H]([C@@H](C)O)NC(=O)CNC(=O)[C@H](CCCCN)NC(=O)[C@H](CCSC)NC(=O)[C@H](CC(=O)O)NC(=O)[C@H](CCCNC(=N)N)NC1=O [JBT0120]
peak thrombin and peak time [3]: improved peak thrombin and peak time, dose dependently
